Data: patent US10434067B2, “Composite formulation for oral administration comprising ezetimibe and rosuvastatin” (HANMI PHARM. CO., LTD., priority 2013, dated 2019)

Test: Forced degradation test of ezetimibe
Assay type: physicochemical
Settings: for Amount of ezetimibe (%): 2 hours
Experimental: The main ingredient, ezetimibe was precisely weighed to about 100 mg and put in a 200 mL volumetric flask. Then, about 20 mL of 90% (v/v) acetonitrile (ACN) was added thereto, and then, completely dissolved by performing ultrasonic extraction for about 10 minutes. Next, the resultant mixture was subjected to a forced degradation test according to each condition using control, oxidation, a strong base, strong acid, and heat as described below.
1) Control: About 10 mL of distilled water was added to the mixture, and the mixture was left in an oven at a temperature of about 60° C. for about 2 hours to proceed a reaction, cooled down to room temperature, and 10 mL of distilled water was dropped thereto.
2) Oxidation: About 10 mL of a 0.5% (v/v) hydrogen peroxide solution was added to the mixture, and the mixture was left in an oven at a temperature of about 60° C. for about 2 hours to proceed a reaction, cooled down to room temperature, and 10 mL of distilled water was dropped thereto.
3) Strong base: About 10 mL of 0.1N NaOH was added to the mixture, and the mixture was left in an oven at a temperature of about 60° C. for about 2 hours to proceed a reaction, cooled down to room temperature, and t 10 mL of 0.1N HCl was dropped thereto (neutralization).
4) Strong acid: About 10 mL of 0.1N HCl was added to the mixture, and the mixture was left in an oven at a temperature of about 60° C. for about 2 hours to proceed a reaction, cooled down to room temperature, and about 10 mL of 0.1N NaOH 10 mL was dropped thereto (neutralization).
5) Heat: About 10 mL of distilled water was added to the mixture, and the mixture was left in an oven at a temperature of about 105° C. for about 2 hours to proceed a reaction, cooled down to room temperature, and about 10 mL of distilled water was dropped thereto.
Then, each of the samples obtained from the degradation test was cooled down to room temperature, and an extract solvent (i.e., a mixed solution of about 0.1 ml of 85% phosphate solution and about 1,000 ml of acetonitrile) was added thereto for each condition above, thereby preparing a test liquid in an amount of 200 mL. Then, the test liquid was analyzed by ‘HPLC’ according to General Tests as set forth in the Korean Pharmacopoeia and calculated according to a ‘quantitation testing method’ and an ‘related compound testing method’, and the amounts of ezetimibe and its main degradation products having […] relative retention time (RRT) were calculated as shown in Table 9 below and FIG. 1.
In addition, the amounts of related compounds of each of the test liquids were calculated, and then, analyzed in connection with an RRT for respective test liquids.

Total % of related compounds in test liquid (Control): 0.63% | related compound at relative retention time 0.15 (Control): − (Less than 0.05%) | related compound at relative retention time 0.26 (Control): − (Less than 0.05%) | related compound at relative retention time 0.54 (Control): − (Less than 0.05%) | related compound at relative retention time 0.64 (Control): − (Less than 0.05%) | related compound at relative retention time 0.67 (Control): − (Less than 0.05%) | related compound at relative retention time 0.74 (Control): − (Less than 0.05%) | related compound at relative retention time 1.11 (Control): − (Less than 0.05%) | related compound at relative retention time 1.18 (Control): − (Less than 0.05%) | Amount of ezetimibe (%) (Control: distilled water, 60° C.): 57.90% | Total % of related compounds in test liquid (Heat): 1.97% | related compound at relative retention time 0.15 (Heat): − (Less than 0.05%) | related compound at relative retention time 0.26 (Heat): − (Less than 0.05%) | related compound at relative retention time 0.54 (Heat): − (Less than 0.05%) | related compound at relative retention time 0.64 (Heat): − (Less than 0.05%) | related compound at relative retention time 0.67 (Heat): − (Less than 0.05%) | related compound at relative retention time 0.74 (Heat): − (Less than 0.05%) | related compound at relative retention time 1.11 (Heat): − (Less than 0.05%) | related compound at relative retention time 1.18 (Heat): + (0.05% or greater and less than 0.10%) | Amount of ezetimibe (%) (Heat: distilled water, 105° C.): 0.21% | Total % of related compounds in test liquid (Oxidation): 0.61% | related compound at relative retention time 0.15 (Oxidation): − (Less than 0.05%) | related compound at relative retention time 0.26 (Oxidation): − (Less than 0.05%) | related compound at relative retention time 0.54 (Oxidation): − (Less than 0.05%) | related compound at relative retention time 0.64 (Oxidation): − (Less than 0.05%) | related compound at relative retention time 0.67 (Oxidation): − (Less than 0.05%) | related compound at relative retention time 0.74 (Oxidation): − (Less than 0.05%) | related compound at relative retention time 1.11 (Oxidation): − (Less than 0.05%) | related compound at relative retention time 1.18 (Oxidation): − (Less than 0.05%) | Amount of ezetimibe (%) (Oxidation: 0.5% hydrogen peroxide, 60° C.): 61.06% | Total % of related compounds in test liquid (Strong acid): 0.45% | related compound at relative retention time 0.15 (Strong acid): + (0.05% or greater and less than 0.10%) | related compound at relative retention time 0.47 (Strong acid): − (Less than 0.05%) | related compound at relative retention time 0.54 (Strong acid): − (Less than 0.05%) | related compound at relative retention time 0.64 (Strong acid): − (Less than 0.05%) | related compound at relative retention time 0.67 (Strong acid): − (Less than 0.05%) | related compound at relative retention time 0.74 (Strong acid): − (Less than 0.05%) | related compound at relative retention time 1.11 (Strong acid): − (Less than 0.05%) | related compound at relative retention time 1.18 (Strong acid): − (Less than 0.05%) | related compound at relative retention time 1.37 (Strong acid): − (Less than 0.05%) | Amount of ezetimibe (%) (Strong acid: 0.1N HCl, 60° C.): 100.31% | Total % of related compounds in test liquid (Strong base): 21.48% | related compound at relative retention time 0.15 (Strong base): + (0.05% or greater and less than 0.10%) | related compound at relative retention time 0.18 (Strong base): +++++ (1.0% or greater) | related compound at relative retention time 0.26 (Strong base): + (0.05% or greater and less than 0.10%) | related compound at relative retention time 0.54 (Strong base): +++++ (1.0% or greater) | related compound at relative retention time 0.74 (Strong base): + (0.05% or greater and less than 0.10%) | related compound at relative retention time 1.11 (Strong base): + (0.05% or greater and less than 0.10%) | related compound at relative retention time 1.37 (Strong base): +++++ (1.0% or greater) | Amount of ezetimibe (%) (Strong base: 0.1N NaOH, 60° C.): 1.56% | stability of ezetimibe (in words) (in a basic environment): unstable | stability of ezetimibe (in words) (under an acidic condition): stable
Compound: O=C1[C@H](CC[C@H](O)c2ccc(F)cc2)[C@@H](c2ccc(O)cc2)N1c1ccc(F)cc1 [ezetimibe]
related compound at relative retention time 0.18 (Control): ++ (0.10% or greater and less than 0.20%) | related compound at relative retention time 0.47 (Control): +++ (0.20% or greater and less than 0.50%) | related compound at relative retention time 1.37 (Control): ++ (0.10% or greater and less than 0.20%) | related compound at relative retention time 0.18 (Heat): ++ (0.10% or greater and less than 0.20%) | related compound at relative retention time 0.47 (Heat): ++++ (0.50% or greater and less than 1.0%) | related compound at relative retention time 1.37 (Heat): ++++ (0.50% or greater and less than 1.0%) | related compound at relative retention time 0.18 (Oxidation): ++ (0.10% or greater and less than 0.20%) | related compound at relative retention time 0.47 (Oxidation): +++ (0.20% or greater and less than 0.50%) | related compound at relative retention time 1.37 (Oxidation): ++ (0.10% or greater and less than 0.20%) | related compound at relative retention time 0.18 (Strong acid): ++ (0.10% or greater and less than 0.20%) | related compound at relative retention time 0.26 (Strong acid): ++ (0.10% or greater and less than 0.20%) | related compound at relative retention time 0.47 (Strong base): +++ (0.20% or greater and less than 0.50%) | related compound at relative retention time 0.64 (Strong base): +++ (0.20% or greater and less than 0.50%) | related compound at relative retention time 0.67 (Strong base): ++ (0.10% or greater and less than 0.20%) | related compound at relative retention time 1.18 (Strong base): ++ (0.10% or greater and less than 0.20%)
